Reference: patent US11173120B2, “Stable formulations of lipids and liposomes” (BioNTech RNA Pharmaceuticals GmbH, priority 2014, dated 2021)

Assay: Stability of DOPE in DOTMA/DOPE liposomes as a function of pH (HPLC lipid recovery, 37° C.)
Assay type: physicochemical
Settings: under all conditions (pH 4-7), up to 6 weeks
Experimental: The stability of DOPE in DOTMA/DOPE liposomes was investigated after adjusting the pH to different values between pH 7 and pH 4. For pH 7, 10 mM HEPES buffer was used. For all lower pH values, acetic acid buffers (all 10 mM) were used (see Table 1). R6 glass type I vials were filled with 2 mL of the liposomes dispersion and stored in a stability chamber at 37° C. pH values were measured by potentiometry using a WTW pH-meter inoLab pH 7310, Weilheim, Germany.
The lipid stability was tested at different time points up to 6 weeks after preparation of the liposomes by measuring the lipid concentration in the liposome preparation using a HPLC system (Agilent Technologies 1200 equipped with DAD and ELSD detectors, Santa Clara, Calif., USA).
Plotted is the normalized recovery of DOPE (in percent) from the DOTMA/DOPE liposomes. […] In contrast, at pH 5, already degradation with a recovery of only 80% of the initial value was observed.

## CCCCCCCC/C=C\CCCCCCCCOCC(C[N+](C)(C)C)OCCCCCCCC/C=C\CCCCCCCC (stereo not shown) [DOTMA, 1,2-di-O-octadecenyl-3-trimethylammoniumpropane]
  degradation of DOTMA in DOTMA/DOPE liposomes: no indication for degradation
